Series [1] is described as follows: Cell viability assay for MRC-5 cell line. The following applies: human.
The target in another series is T1, PLK1 (Homo sapiens, UniProt P53350).
T1 construct: endogenous in cells; host or cells: HeLa cells stably expressing LgBit, with CRISPR/Cas9 knock-in of HiBit at the endogenous PLK1 locus
Nature of the series: Luciferase assay for PLK1 in HeLa LgBit (Plk1-HiBit KI) cell line. The class given is cell-based. To be noted: 300 nM compound, luminescence after 9 hours. As for the experimental part: 2. Luciferase Assay for PLK1
(1) Preparation and Culture of HeLa LgBit (Plk1-HiBit KI) Cell Line
A HeLa cell line in which the LgBit vector was transfected and expressed stably was prepared. Then, after constructing gRNA and donor to express the HiBit amino acid sequence behind the C-terminal of the Plk1 gene, which was inherent in the cell, it was inserted into the cell together with a vector capable of expressing CRISPR/Cas9. Only the cells in which the insertion was completed and knock-in had progressed were selected, sub-cultured and used.
(2) Treatment of Compounds of the Present Invention and Method of Luciferase Assay
In the case of HeLa LgBit (Plk1-HiBit KI), the compounds were treated after being released after thymidine block, and the process was as follows. Thymidine (Sigma-Aldrich Cat. No. T9250-5G) was completely dissolved in DW and used in the experiment. For thymidine block, the products were treated with 2 mM of thymidine and then incubated for 24 hours. For release and chemical treatment, the medium was suctioned and washed with 1×PBS. TrypLE™ was added and incubated in 37° C. CO2 incubator for 5 min. Cells neutralized by adding complete media were counted through a counter. For each well of a 96-well culture plate (SPL), 3.3×10^4 cells and a total medium volume of 150 μL were seeded and incubated in a CO2 incubator.
Each cell line was incubated in a CO2 incubator for 18 hours, and Endurazine was added to each well to make up 4% of the total volume. After adding the compound of the present invention in a 96-well white plate (SPL) to a concentration of 300 nM, the wavelength of the plate reader (BMG Labtech, CLARIOstar Plus) was set to […], and then the luminescence was tracked in real time.
The results are shown in Table 2 below and FIGS. 1 and 2.
In Table 2, Activity represents the ratio of the luminescence value of each Exemplary Compound treatment group to DMSO treatment group (+++: <0.3, ++ <0.6, + <0.7).
(The HiBiT peptide binds its large partner to form an active luciferase.)

For the next series, the system named is H526 cell line. Put plainly: Cell viability assay for H526 cell line. To be noted: Homo sapiens, NCI-H526, 120 h; H526 cells, 5 days, EZ-Cytox, 0.46-3000 nM. Format: cell-based. How it is done:
3. Cell Viability Assay for H526 Cell Line
(1) Culture of NCI-H526 Cell Line
(2) Treatment of Compounds of the Present Invention and Method of Cell Viability Assay
After treating the compound to each well to make the total volume of 200 μL, it was cultured in a CO2 incubator (Thermo Fisher Science, Cat. No. 4111) for 5 days.
The absorbance of the completely cultured sample was measured by setting the wavelength of a plate reader (BMG Labtech, CLARIOstar Plus) to […], and was measured after shaking for 3 minutes in a plate reader before measurement.
In Table 3, Activity represents IC50 value of each Exemplary Compound treatment group to H526 cell line (A: <30 nM, B: <50 nM, C: <100 nM, D: <200 nM, E: <400 nM).

The source of these data is patent US11939334B2, “Substituted pyrimido[4,5-b][1,4]diazepines as PLK1 degradation inducers” (UPPTHERA, INC., priority 2021, dated 2024).

What is called IC50 is the midpoint of a concentration-inhibition curve. Read a low IC50 as greater potency in that assay.

T1 sequence (P53350 whole entry): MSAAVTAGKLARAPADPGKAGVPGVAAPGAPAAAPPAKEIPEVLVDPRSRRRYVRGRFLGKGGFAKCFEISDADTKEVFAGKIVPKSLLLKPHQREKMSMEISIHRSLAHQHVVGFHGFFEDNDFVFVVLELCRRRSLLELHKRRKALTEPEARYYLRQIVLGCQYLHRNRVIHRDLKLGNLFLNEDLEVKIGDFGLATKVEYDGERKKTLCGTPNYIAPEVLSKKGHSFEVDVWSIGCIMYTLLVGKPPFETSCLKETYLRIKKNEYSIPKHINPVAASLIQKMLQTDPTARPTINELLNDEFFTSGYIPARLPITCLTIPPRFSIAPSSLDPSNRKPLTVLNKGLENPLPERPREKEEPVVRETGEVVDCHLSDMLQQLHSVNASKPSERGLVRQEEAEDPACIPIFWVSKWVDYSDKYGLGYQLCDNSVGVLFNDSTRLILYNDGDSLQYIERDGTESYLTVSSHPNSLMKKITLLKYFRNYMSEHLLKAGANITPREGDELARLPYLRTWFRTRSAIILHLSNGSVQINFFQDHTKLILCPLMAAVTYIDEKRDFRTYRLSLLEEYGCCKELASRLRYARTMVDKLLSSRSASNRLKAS

As to `COc1cc(C(=O)NC2CCN(C(=O)CCCOc3cccc(C4CCC(=O)NC4=O)c3)CC2)ccc1Nc1ncc2c(n1)N(C(C)C)CC(F)(F)C(=O)N2C` (centres unmarked) [Compound 1, 4-((7,7-difluoro-9-isopropyl-5-methyl-6-oxo-6,7,8,9-tetrahydro-5H-pyrimido[4,5-b][1,4]diazepin-2-yl)amino)-N-(1-(4-(3-(2,6-dioxopiperidin-3-yl)phenoxy)butanoyl)piperidin-4-yl)-3-methoxybenzamide], in series [1] (MRC-5 cells (normal cell line)), the concentration for half-maximal inhibition (IC50) at 5 days is > 10000 nM. For the same compound, the “Activity: ratio of the luminescence value of each Exemplary Compound treatment group to DMSO treatment group” value (from here on “Activity: ratio”) on PLK1 is on record as “+++ (+++: <0.3)”. The half-inhibitory concentration (IC50) in the series with H526 cell line was < 50 nM.
On the same counts, the results for `COc1cc(C(=O)NC2CCN(C(=O)CCN3CCN(c4ccc(C5CCC(=O)NC5=O)cc4)CC3)CC2)ccc1Nc1ncc2c(n1)N(C(C)C)CC(F)(F)C(=O)N2C` (centres unmarked) [Compound 2, 4-((7,7-difluoro-9-isopropyl-5-methyl-6-oxo-6,7,8,9-tetrahydro-5H-pyrimido[4,5-b][1,4]diazepin-2-yl)amino)-N-(1-(3-(4-(4-(2,6-dioxopiperidin-3-yl)phenyl)piperazin-1-yl)propanoyl)piperidin-4-yl)-3-methoxybenzamide] are > 10000 nM, “++ (++ <0.6)” and < 30 nM.
On the same counts, the results for `COc1cc(C(=O)NC2CCN(C(=O)CCN3CCN(c4ccc(C5CCC(=O)NC5=O)cc4)CC3)CC2)ccc1Nc1ncc2c(n1)N(C(C)C)CC1(CC1)C(=O)N2C` (centres unmarked) [Compound 3, N-(1-(3-(4-(4-(2,6-dioxopiperidin-3-yl)phenyl)piperazin-1-yl)propanoyl)piperidin-4-yl)-4-((9′-isopropyl-5′-methyl-6′-oxo-5′,6′,8′,9′-tetrahydrospiro[cyclopropane-1,7′-pyrimido[4,5-b][1,4]diazepin]-2′-yl)amino)-3-methoxybenzamide] are > 10000 nM, “++ (++ <0.6)” and < 100 nM.
On the same counts, the results for `COc1cc(C(=O)NC2CCN(C(=O)CCN3CCN(c4cccc(C5CCC(=O)NC5=O)c4)CC3)CC2)ccc1Nc1ncc2c(n1)N(C(C)C)CC(F)(F)C(=O)N2C` (centres unmarked) [Compound 4, 4-((7,7-difluoro-9-isopropyl-5-methyl-6-oxo-6,7,8,9-tetrahydro-5H-pyrimido[4,5-b][1,4]diazepin-2-yl)amino)-N-(1-(3-(4-(3-(2,6-dioxopiperidin-3-yl)phenyl)piperazin-1-yl)propanoyl)piperidin-4-yl)-3-methoxybenzamide] are > 10000 nM, “++ (++ <0.6)” and < 30 nM.
`COc1cc(C(=O)NC2CCN(C(=O)CCN3CCN(c4cccc(C5CCC(=O)NC5=O)c4)CC3)CC2)ccc1Nc1ncc2c(n1)N(C(C)C)CC1(CC1)C(=O)N2C` (centres unmarked) [Compound 5, N-(1-(3-(4-(3-(2,6-dioxopiperidin-3-yl)phenyl)piperazin-1-yl)propanoyl)piperidin-4-yl)-4-((9′-isopropyl-5′-methyl-6′-oxo-5′,6′,8′,9′-tetrahydrospiro[cyclopropane-1,7′-pyrimido[4,5-b][1,4]diazepin]-2′-yl)amino)-3-methoxybenzamide]: the IC50 at 5 days in series [1] (MRC-5 cells (normal cell line)) is > 10000 nM. The “Activity: ratio” value on PLK1 was “++ (++ <0.6)”. Also, the IC50 with H526 cell line is < 200 nM.
On the same counts, the results for `COc1cc(C(=O)NN2CCN(C(=O)CCC3CCN(c4ccc(C5CCC(=O)NC5=O)cc4F)CC3)CC2)ccc1Nc1ncc2c(n1)N(C(C)C)CC(F)(F)C(=O)N2C` (centres unmarked) [Compound 11, 4-((7,7-difluoro-9-isopropyl-5-methyl-6-oxo-6,7,8,9-tetrahydro-5H-pyrimido[4,5-b][1,4]diazepin-2-yl)amino)-N-(1-(3-(1-(4-(2,6-dioxopiperidin-3-yl)-2-fluorophenyl)piperidin-4-yl)propanoyl)piperazin-1-yl)-3-methoxybenzamide] are > 10000 nM, “++ (++ <0.6)” and < 50 nM.
In the case of `COc1cc(C(=O)NC2CC3(CCN(CC4CCN(c5ccc(C6CCC(=O)NC6=O)cc5F)CC4)CC3)C2)ccc1Nc1ncc2c(n1)N(C(C)C)CC(F)(F)C(=O)N2C` (centres unmarked) [Compound 13, 4-((7,7-difluoro-9-isopropyl-5-methyl-6-oxo-6,7,8,9-tetrahydro-5H-pyrimido[4,5-b][1,4]diazepin-2-yl)amino)-N-(7-((1-(4-(2,6-dioxopiperidin-3-yl)-2-fluorophenyl)piperidin-4-yl)methyl)-7-azaspiro[3.5]nonan-2-yl)-3-methoxybenzamide], the IC50 at 5 days in series [1] was > 10000 nM. Also, the “Activity: ratio” value at PLK1 is given as “++ (++ <0.6)”. The IC50 in the series on H526 cell line was < 30 nM.
Regarding `COc1cc(C(=O)NN2CCC(CN3CCN(c4ccc(C5CCC(=O)NC5=O)cc4F)CC3)C(F)(F)C2)ccc1Nc1ncc2c(n1)N(C(C)C)CC(F)(F)C(=O)N2C` (centres unmarked) [Compound 16, 4-((7,7-difluoro-9-isopropyl-5-methyl-6-oxo-6,7,8,9-tetrahydro-5H-pyrimido[4,5-b][1,4]diazepin-2-yl)amino)-N-(4-((4-(4-(2,6-dioxopiperidin-3-yl)-2-fluorophenyl)piperazin-1-yl)methyl)-3,3-difluoropiperidin-1-yl)-3-methoxybenzamide], in series [1] (MRC-5 cells (normal cell line)), the half-inhibitory concentration (IC50) at 5 days is > 10000 nM. The “Activity: ratio” value at PLK1 is “++ (++ <0.6)”. For the same compound, the IC50 in the series with H526 cell line is < 100 nM.
On the same counts, the results for `COc1cc(C(=O)NN2CC(F)(F)CC2CCN2CCN(c3ccc(C4CCC(=O)NC4=O)cc3F)CC2)ccc1Nc1ncc2c(n1)N(C(C)C)CC(F)(F)C(=O)N2C` (centres unmarked) [Compound 17, 4-((7,7-difluoro-9-isopropyl-5-methyl-6-oxo-6,7,8,9-tetrahydro-5H-pyrimido[4,5-b][1,4]diazepin-2-yl)amino)-N-(2-(2-(4-(4-(2,6-dioxopiperidin-3-yl)-2-fluorophenyl)piperazin-1-yl)ethyl)-4,4-difluoropyrrolidin-1-yl)-3-methoxybenzamide] are > 10000 nM, “++ (++ <0.6)” and < 50 nM.
With `COc1cc(C(=O)NN2CCC(N3CC4(CCN(c5ccc(C6CCC(=O)NC6=O)cc5F)CC4)C3)CC2)ccc1Nc1ncc2c(n1)N(C(C)C)CC(F)(F)C(=O)N2C` (centres unmarked) [Compound 40, 4-((7,7-difluoro-9-isopropyl-5-methyl-6-oxo-6,7,8,9-tetrahydro-5H-pyrimido[4,5-b][1,4]diazepin-2-yl)amino)-N-(4-(7-(4-(2,6-dioxopiperidin-3-yl)-2-fluorophenyl)-2,7-diazaspiro[3.5]nonan-2-yl)piperidin-1-yl)-3-methoxybenzamide], the “Activity: ratio” value at PLK1 is reported as “++ (++ <0.6)”. For the same compound, in the series on H526 cell line, the IC50 is < 30 nM.
